Source: patent US10154961B2, “Pomegranate oil for preventing and treating neurodegenerative diseases” (Hadasit Medical Research Services and Development Ltd., priority 2012, dated 2018)

Test system: fibroblast isolated from TgMHu2ME199K mice
Format: cell-based

CCCC\C=C/C=C/C=C\CCCCCCCC(=O)O [punicic acid]
effect on copper toxicity, percentage of cell survival: significantly inhibited the toxic effect of cooper
